Values of other authors as cited in patent US10245273B2, “Oral pharmaceutical products and methods of use combining testosterone esters with hypolipidemic agents” (Clarus Therapeutics, Inc., priority 2013, dated 2019).

In the case of `Cc1ccc(C)c(OCCCC(C)(C)C(=O)O)c1` [gemfibrozil], the “Subjects with a primary event” value (600 mg twice daily for 5 years (placebo 21.7%)) is listed as 17.3%, the “Reduction in CHD events / relative risk reduction of primary outcome (nonfatal myocardial infarction or death of cardiac origin)” value (600 mg twice daily, median follow-up 5.1 years, vs placebo) is listed as 22% and the “Increase in numbers of small HDL particles” value (in vivo) is listed as 21%. For the same molecule, the “Increase in total HDL particles” value (in vivo) was 10% and the “Relative risk reduction for combined cardiac events (nonfatal MI, death from coronary causes or stroke)” value (vs placebo) was 24%.
